Patent EP4588485A1, “PHARMACEUTICAL COMBINATION OF FAK INHIBITOR AND TOPOISOMERASE INHIBITOR AND USE THEREOF” (Inxmed (Nanjing) Co., Ltd., priority 2022, dated 2024)

Experiments:
MDA-MB-231 cells [1] = test: Calreticulin release and exposure by flow cytometry after FAK siRNA silencing plus topoisomerase inhibitor; assay type: cell-based; conditions: FAK siRNA 50 nM for 24 hours, then 2 µM drug for 48 hours; compared with control siRNA; Fig. 2 / Fig. 4
Experimental: The siRNA technology was used in the in vitro assay to reduce the expression level of FAK, and combined with Etoposide for 48 hours. Flow cytometry was used to detect the expression of Calreticulin, the main target of ICD.
MDA-MB-231 cells were transfected with control siRNA or FAK siRNA at a final concentration of 50 nM, respectively. After the transfection for 24 hours, the cells were treated with 2 µM of Etoposide for 48 hours. The cells were fluorescent stained with Calreticulin antibody, and the staining results were analyzed by flow cytometry.
The siRNA technology was used in the in vitro assay to reduce the expression level of FAK, and combined with Teniposide for 48 hours. Flow cytometry was used to detect the expression of Calreticulin, the main target of ICD.
MDA-MB-231 cells were transfected with control siRNA or FAK siRNA at a final concentration of 50 nM, respectively. After the transfection for 24 hours, the cells were treated with 2 µM Teniposide for 48 hours. The cells were fluorescent stained with Calreticulin antibody, and the staining results were analyzed by flow cytometry.

CT26 cells [2] = test: CCK-8 cell proliferation inhibition; assay type: cell-based; conditions: Mus musculus, single drug, 72 hours, CCK8, OD450
Experimental: CT26 cells were cultured with RPMI-1640 (Shanghai Basalmedia, catalog number: L210KJ, batch number: F210916) + 10% FBS (Gibco, catalog number: 10099-141c, batch number: 2158737cp), and passaged twice. When the cells were in good condition, they were placed in a 96-well plate, 3000 cells/well. […] 10 drug concentrations were set. The first concentration was 30 µM, which was serially diluted 5-fold, and the last one was the control, with the drug concentration of 0. Each drug concentration was run in triplicate. At the same time, another group of cells was established with the same drug concentration as that in the above method.
10 µl of CCK8 detection reagent (Cellorlab, classification number: CX001M, batch number: 2571100) was added to each well, and the plate was incubated in a 5% CO2 incubator at 37 °C for 2-4 hours. Then the plate was read using microplate reader OD450 (chemiluminescence method). […]
CT26 cells were digested with trypsin, and then the cells were collected and counted. […]
After 72 hours of drug action, 10 µL of CCK-8 detection reagent was added to each well of the cell plate using a multi-channel pipette, and then the cell plate was incubated in a 37 °C, 5% CO2 incubator for another 4 hours. Finally, the absorbance of each well at 450 nm was measured using an ELISA reader. […]

[3] = day 17 after group administration, 6 mice per group; deaths due to tumor rupture
Experimental: (§1) • 1. N: number of mice in each group; • 2. Dosing volume: 10 mL/kg based on the mouse body weight. If the body weight dropped by more than 15%, the administration of the animals would be stopped; When the body weight recovered to 90%, the administration would be resumed. • 3. The Etoposide dose was increased to 6 mg/kg on the 6th day after grouping and dosing;
The formulation and any modifications of this assay protocol had been assessed and approved by the IACUC of ArrayBridge. The use and welfare of assay animals were carried out in accordance with AAALAC regulations. The health status and mortality of animals were monitored daily, with routine checks including observation of tumor growth and the impact of drug treatment on the animals' daily behavior, such as activity, food and water intake (estimated by visual inspection), changes in body weight, physical signs, or any other abnormalities. The number of animal deaths and side effects in each group were recorded based on the number of animals in each group.
The assay was carried out according to the dosing regimen. During the assay, the animals' activities such as eating and drinking were observed every day, and the body weight of the animals was recorded three times a week. […]

[4] = system: MC38 mouse colorectal cancer cells; test: In vivo antitumor efficacy in subcutaneous allograft tumor model; parameters: species or system C57BL/6 mice
Experimental: Table 12: Animal groups and dosing regimens for in vivo efficacy assays
as §1
Colorectal cancer cells MC38 (from Nanjing Cobioer Biotechnology Co., Ltd., article number: CBP60825) were maintained and passaged by InxMed (Nanjing) Co., Ltd. Cells were cultured in monolayer in vitro under the following conditions: DMEM medium with 10% fetal bovine serum, in a 37°C, 5% CO2 incubator. Cells were routinely digested and passaged two to three times a week using trypsin-EDTA. When the cells were in the exponential growth phase and the adherent confluence reached 80%-90%, the cells were harvested, counted, and then inoculated.
0.1 mL of cell suspension containing 2×10^5 cells was subcutaneously inoculated on the right back of each mouse. When the tumor volume reached about 50 mm^3 (9th day after cell inoculation), the mice were randomly divided into groups and administered according to the tumor volume. Table 13: Test substance and control solvent preparation
The assay index was to examine whether the tumor growth was inhibited, delayed, or cured. Tumor diameters were measured three times a week using calipers. The tumor volume was calculated using the formula: V = 0.5 × a × b^2, where a and b represent the long and short diameters of the tumor, respectively.
The anti-tumor efficacy of the compound was evaluated by TGI (%), which reflected the tumor growth inhibition rate. Based on the tumor volume on the first day after grouping, the tumor growth inhibition rate TGI (%) was calculated according to the following formula: TGI (%) = [1 - (average tumor volume of an administration group - average tumor volume of the administration group at the beginning of treatment) / (average tumor volume of the solvent control group - average tumor volume of the solvent control group at the beginning of treatment)] × 100%.
Statistical analysis was based on tumor volume at the end of the assay using Prism Graphpad software. Comparisons between multiple groups were analyzed using Two-way ANOVA and Fisher's LSD test. A P-value of less than 0.05 was considered statistically significant.
After cell inoculation, tumor growth was observed every day. On the 9th day after inoculation, mice were grouped based on tumor volume. The average tumor volume at enrollment was approximately 50 mm^3.

CT26 cells [5] = test: Microscope observation of cell status after 48 hours of drug action; assay type: cell-based, mouse; conditions: IN10018 5 µM; for cell status observed under a microscope: Etoposide 20 µM, Fig. 6; for cell status observed under a microscope (cell death / cell viability): Teniposide 4.8 µM
Experimental: CT26 cells (Institute of Cell Biology, Chinese Academy of Sciences) were cultured with RPMI-1640 (Shanghai Basalmedia, catalog number: L210KJ, batch number: F210916) + 10% FBS (Gibco, catalog number: 10099-141c, batch number: 2158737cp), and passaged twice. When the cells were in good condition, they were placed in a 24-well plate. After 24 hours of cell spreading, four groups were set up. The first group was the control group, in which culture medium was added; the second group was IN10018 at a concentration of 5µM; the third group was Etoposide (source: MCE, classification number: 33419-42-0, batch number: 113741) with a concentration of 20 µM; and the fourth group was a combination group of IN10018 (5 µM) and Etoposide (20 µM). The drugs were mixed and cultured in a 5 % CO2 incubator at 37°C for 48 hours.
After 48 hours of drug action, the cells were observed and photographed under a microscope. The photos were saved. Then the cells were collected for flow cytometry, and the cells were washed twice with flow buffer (PBS + 2% FBS). 0.5 µl of AF647 anti-Calreticulin antibody (abcam, catalog number: ab196159, batch number: CR33676773) was added to each well, and fully mixed. The cells were incubated at 4 °C for 20 minutes in the dark. After 20 minutes, the cells were washed twice with flow buffer (PBS + 2% FBS). Cell apoptosis detection kit (Beyotime, catalog number: CL062L, batch number: 021921210811) was used. 195 µl of Annexin-V-FITC binding solution was added, and the cells were gently mixed. 5 µl of annexin-V-FITC antibody was added, and the mixture was gently mixed. 10 µl of PI dye was added and gently mixed. The mixture was incubated at room temperature in the dark for 15 minutes, and then analyzed on a flow cytometer.
After 48 hours of drug action, the cells were photographed using a microscope, then trypsinized and collected for flow cytometry staining.

MDA-MB-231 cells [6] = test: Apoptosis by Annexin V flow cytometry after FAK siRNA silencing plus topoisomerase inhibitor; assay type: cell-based; conditions: FAK siRNA 50 nM for 24 hours, then 2 µM drug for 48 hours; FAK silencing group compared with control siRNA group; Fig. 1 / Fig. 3
Experimental: The siRNA technology was used in the in vitro assay to reduce the expression level of FAK, and combined with Etoposide for 48 hours; flow cytometry was used to detect apoptosis in control and FAK silenced cells.
Assay antibodies: recombinant Alexa Fluor® 647 fluorescent Anti-Calreticulin antibody (Abcam, ab196159), Annexin V apoptosis detection kit (Invitrogen, A35110).
MDA-MB-231 cells were transfected with control siRNA or FAK siRNA at a final concentration of 50 nM, respectively. After the transfection for 24 hours, the cells were treated with 2 µM of Etoposide for 48 hours. The cells were stained using Annexin V kit and detected by flow cytometry. The early and late apoptotic values were counted, compared with those of the DMSO control group, and plotted using Graphpad 8.0.
The siRNA technology was used in the in vitro assays to reduce the expression level of FAK, and combined with Teniposide for 48 hours; flow cytometry was used to detect apoptosis in control and FAK silenced cells. […]
MDA-MB-231 cells were transfected with control siRNA or FAK siRNA at a final concentration of 50 nM, respectively. […] The cells were stained using Annexin V kit and detected by flow cytometry. The early and late apoptosis values were counted, compared with those of the DMSO control group, and plotted using Graphpad 8.0.

| Compound | release and exposure of Calreticulin (MDA-MB-231 cells [1]) | IC50 (CT26 cells [2]) | Animal Survival [3] | Tumor volume on day 17 ([4]; 17th day after group administration, Etoposide 3 mg/kg PO QD (6 mg/kg from the 6th day), IN10018 25 mg/kg PO QD, PD-L1 antibody 5 mg/kg i.p. BIW, mean ± SD) | Tumor volume on day 0 ([4]; baseline on the day of grouping, mean ± SD, 6 mice per group) | TGI ([4]; day 17 vs. control group, Etoposide 3 mg/kg PO QD (6 mg/kg from the 6th day), IN10018 25 mg/kg PO QD, PD-L1 antibody 5 mg/kg i.p. BIW) | inhibitory effect on tumor growth ([4]; in words, compared with the blank control group, whole dosing cycle, Fig. 11) | cell status observed under a microscope (CT26 cells [5]) | cell status observed under a microscope (cell death / cell viability) (CT26 cells [5]) | apoptosis (early and late apoptotic values) (MDA-MB-231 cells [6]) |
| --- | --- | --- | --- | --- | --- | --- | --- | --- | --- | --- |
| COc1cc([C@@H]2c3cc4c(cc3[C@@H](O[C@@H]3O[C@@H]5CO[C@@H](C)O[C@H]5[C@H](O)[C@H]3O)[C@H]3COC(=O)[C@H]23)OCO4)cc(OC)c1O [Etoposide] | significantly enhanced | 24.4 µM | 5/6 | 2420.2±1377.3 mm^3 | 48.2 ± 10.2 mm^3 | 9.5% | no inhibitory effect | poor | obvious | significantly enhanced |
| COc1cc(C(=O)NC2CCN(C)CC2)c(F)cc1Nc1ncc(C(F)(F)F)c(Oc2cccc3c2C(=O)N(C)C3)n1 [IN10018] |  |  |  |  |  |  |  | good | better |  |
| COc1cc([C@@H]2c3cc4c(cc3[C@@H](O[C@@H]3O[C@@H]5CO[C@@H](c6cccs6)O[C@H]5[C@H](O)[C@H]3O)[C@H]3COC(=O)[C@H]23)OCO4)cc(OC)c1O [Teniposide] | significantly enhanced | 0.818 µM |  |  |  |  |  |  |  | significantly enhanced |
